Patent US6015805A, “17β-nitro-11β-arylisteroids and their derivatives having agonist or antagonist hormonal properties” (Research Triangle Research North Carolina, priority 1999, dated 2000)

Tests used:
[1] = target: T1, human progesterone hormone receptor (hPR) (Homo sapiens, UniProt P06401); test: Receptor binding (human), inhibition of [^3 H]-R5020 binding; conditions: cytosol from human T-47D cells; 0.4 nM [^3 H]-R5020; 4 hours at 4° C.
T1 construct: The receptor was obtained in cytosol from human T-47D breast cells; endogenous in cells; host or cells: T-47D human breast cells (cytosol)
T1 sequence (P06401 1-933): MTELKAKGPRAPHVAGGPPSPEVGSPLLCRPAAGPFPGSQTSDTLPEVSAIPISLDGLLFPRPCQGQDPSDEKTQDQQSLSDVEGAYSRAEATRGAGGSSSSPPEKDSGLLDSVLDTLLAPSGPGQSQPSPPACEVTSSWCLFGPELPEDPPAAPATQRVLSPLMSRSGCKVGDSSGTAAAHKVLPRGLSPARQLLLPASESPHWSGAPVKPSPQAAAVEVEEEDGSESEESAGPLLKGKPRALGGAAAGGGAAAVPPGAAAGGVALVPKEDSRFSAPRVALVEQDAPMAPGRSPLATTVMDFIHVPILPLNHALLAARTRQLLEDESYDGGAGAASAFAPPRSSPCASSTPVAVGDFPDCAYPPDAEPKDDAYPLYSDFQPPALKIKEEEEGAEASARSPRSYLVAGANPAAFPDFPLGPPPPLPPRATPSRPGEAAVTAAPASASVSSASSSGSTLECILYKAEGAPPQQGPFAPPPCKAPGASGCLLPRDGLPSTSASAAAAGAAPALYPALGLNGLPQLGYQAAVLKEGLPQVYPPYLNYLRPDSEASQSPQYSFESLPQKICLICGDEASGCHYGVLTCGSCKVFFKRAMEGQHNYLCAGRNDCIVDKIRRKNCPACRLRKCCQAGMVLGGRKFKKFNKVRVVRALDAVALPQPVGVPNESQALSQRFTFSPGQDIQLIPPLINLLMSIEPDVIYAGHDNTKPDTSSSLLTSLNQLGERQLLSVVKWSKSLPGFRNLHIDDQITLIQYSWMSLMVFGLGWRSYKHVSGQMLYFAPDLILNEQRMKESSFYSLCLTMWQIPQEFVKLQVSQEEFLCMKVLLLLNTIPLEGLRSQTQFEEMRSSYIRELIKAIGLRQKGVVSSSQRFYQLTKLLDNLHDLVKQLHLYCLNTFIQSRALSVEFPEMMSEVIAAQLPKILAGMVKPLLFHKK
Procedure: The affinity of the compounds for hormone receptors for progestins and glucocorticoids from rabbits was determined by standard procedures similar to those that have been described in C. E. Cook, et al., Human Reproduction, Volume 9, supplement 1, pp. 32-39 (1994). However, the source of the glucocorticoid receptor was the thymus of the estrogen-primed immature female rabbit. The affinity of the compounds for the human progesterone hormone receptor was determined by standard procedures similar to those that have been described in Horwitz, et al., Cell, 28: 633-42 (1982) and Mockus, et al., Endocrinology, 110: 1564-71 (1982). The receptor was obtained in cytosol from human T-47D breast cells and [^3 H]-R5020 was used as the radioligand. T47D cells (1 billion/mL) were homogenized in TEDG buffer (10 mM Tris, 1.5 mM EDTA, 1 mM dithiothreitol, 1 mM sodium molybdate, and 10% glycerol) using a Dounce pestle A, and the homogenate was centrifuged at 34,000×g for 1 hour. The supernatant was stored at -80° C. An aliquot of receptor preparation was combined with test compound, 0.4 nM [^3 H]-R5020, and TEDG buffer to a final volume of 150 ,μL and incubated for 4 hours at 4° C. in microtiter plates. At the end of incubation 40 μL 40% polyethylene glycol and 15 μL 1% human gamma globulin was added to the incubate and the contents of each well were harvested onto double thick B filter mats (Wallac LKB) using a TomTec harvester. A film of Meltilux scintillant wax was applied to the dried filter mats and the mats were counted in a scintillation counter to determine inhibition of [^3 H]-R5020 binding. Data are expressed as lC50 values, i.e., the concentration of compound that inhibits radioligand binding by 50%.

[2] = test system: human T-47D breast cells; test: T47D cell proliferation, agonist format; type: cell-based; conditions: maximum % stimulation at any dose, 0.01 to 10 nM
Procedure: Human T-47D breast cells grown in nutrient media were incubated with the standard progestin R5020 alone or with R5020 plus test compound and then assessed by standard procedures for proliferation using incorporation of [^3 H]-thymidine as the measurement. […] The maximum % inhibition (a measure of the efficacy of the compounds) is also given. In the agonist format of this assay the compounds were tested at concentrations ranging from 0.01 to 10 nM and the maximum % stimulation at any dose is listed in Table 3.

[3] = test system: rabbits; test: McGinty assay (progestational activity, test compound alone); type: in vivo, rabbit; parameters: key: McPhail scoring scale for progestational endometrial response
Procedure: Progestational activity and antiprogestational activity were determined in rabbits by means of the McGinty test (test compound alone, procedure of McGinty et al., Endocrinology, 24: 829-832 (1939)) or anti-McGinty test (test compound plus progesterone, procedure of Tamara et al., Jpn. J. Fertil Steril 24: 48-81 (1979)). Results were scored according to McPhail (McPhail, J Physiol., 83: 146 (1934)). These are standard procedures known to those skilled in the art. The results of these assays are shown in Tables 4 (agonist activity) and 5 (antagonist activity). […] Physiol, 83: 146 (1934)).

| Compound | IC50 [1] [nM] | Emax [2] [%] | McPhail Index, McGinty Assay (Agonist) ([3]; dose 0.3 micrograms) | McPhail Index, McGinty Assay (Agonist) ([3]; dose 3 micrograms) | McPhail Index, McGinty Assay (Agonist) ([3]; dose 30 micrograms) |
| --- | --- | --- | --- | --- | --- |
| CC(=O)c1ccc([C@H]2C[C@@]3(C)[C@@H](CC[C@]3(/C=C/CO)[N+](=O)[O-])[C@@H]3CCC4=CC(=O)CCC4=C32)cc1 [I 4-CH3 CO H O H CH=CHCH2 OH, 11β-(4-acetylphenyl)-17α-(E-3-hydroxy-1-propenyl)-17β-nitroestra-4,9-dien-3-one] | 26.1 | 52 | 0 ± 0 | 0 ± 0 | 0 ± 0 |
| CC#C[C@]1([N+](=O)[O-])CC[C@H]2[C@@H]3CCC4=CC(=O)CCC4=C3[C@@H](c3ccc(C(C)=O)cc3)C[C@@]21C [I 4-CH3 CO H O H --CC--CH3, 11β-(4-Acetylphenyl)-17β-nitro-17α-(1-propynyl)estra-4,9-dien-3-one] | 0.8 | 35 | 0.13 ± 0.12 | 1.33 ± 0.35 | 0.97 ± 0.75 |
| CC1=[N+]([O-])C2(CC1)CCC1C3CCC4=CC(=O)CCC4=C3C(c3ccc(N(C)C)cc3)CC12C (stereo not drawn) [II 4-Me2 N H O H -- CH3, 3',4'-dihydro-11β-(4-(N,N-dimethylamino)phenyl)-5'-methyl-1'-oxo-spiro[estra-4,9-dien-17β,2'(2'H)-pyrrole]-3-one] | 10.2 |  | 0 ± 0 | 0 ± 0 | 0 ± 0 |
| CN(C)c1ccc([C@H]2C[C@@]3(C)[C@@H](CC[C@]3(CCCO)[N+](=O)[O-])[C@@H]3CCC4=CC(=O)CCC4=C32)cc1 [I 4-Me2 N H O H --(CH2)3 OH, 11β-[4-(N,N-Dimethylamino)phenyl]-17α-(3-hydroxypropyl)-17β-nitroestra-4,9-dien-3-one] | 4.1 | 33 | 0 ± 0 | 0 ± 0 | 0.03 ± 0.057 |
| CC(=O)c1ccc([C@H]2C[C@@]3(C)[C@@H](CC[C@]3(CCCO)[N+](=O)[O-])[C@@H]3CCC4=CC(=O)CCC4=C32)cc1 [I 4-CH3 CO H O H --(CH2)3 OH, 11β-(4-Acetylphenyl)-17α-(3-hydroxypropyl)-17β-nitroestra-4,9-dien-3-one] | 16 | 41 | 0 ± 0 | 0 ± 0 | 0 ± 0 |
